Reference: patent US20230181475A1, “COMPOSITION COMPRISING METHYLFOLATE” (ALFASIGMA S.P.A., priority 2020, published 2023)

How the values were obtained:
[1] = test system: C57Black/6J mice subjected to CUS; assay: Forced swimming test (FST) in mice subjected to Chronic Unpredictable Stress (CUS); type: in vivo; conditions: MTHF 3 mg/kg, LAC 30 mg/kg; for effect on immobility time in FST / effects of chronic stress (in words): 3 days of treatment; for Total Immobility Time (sec) + SD: i.p. 3 days of treatment, last 4 minutes of 6 min test, n=8
Protocol: The animal study was performed in a validate experimental model subject to Chronic Unpredictable Stress (CUS), as described in J H Cryan et al. in J. Neubiorev. 2005, 03, 009, for a period of 4 weeks to induce the depressive phenotype CUS. The CUS allows the depressive phenotype responsive to standard antidepressant treatments to be reproduced in vivo in mammals. The animals were divided in five groups and the group which received the combination of MTHF with LAC was compared with the groups which received MTHF and LAC separately. All the groups were compared with the group which received saline solution and the group which not submitted to CUS.
The mice were subjected to CUS for 4 weeks, and the drug treatment started at the 3rd week of CUS and maintained until the end of the 4-week treatment.
To assess the antidepressant effects of the selected product LAC and MTHF the animals were submitted to the Forced swimming test (“FST”) as described in J H Cryan et al. in J. Neubiorev. 2005, 03, 009 and measured the Total Immobility Time expressed in the […] of animals.
Forty, 7-week-old male C57Black/6J, mice were subjected to CUS (“Chronic Unpredictable Mild Stress”), a validate model that allow the depressive phenotype as described in J H Cryan et al. in J. Neubiorev. 2005, 03, 009.
The mice were subjected to CUS for 4 weeks, during which different types of stress were applied to the animals twice-a-day in a random and unpredictable manner: one session during the day lasting 1-3 hours, and one session during the night (lasting 12 hours), with at least 6 hours of interval between the two sessions. […]
To assess the antidepressant behavioural effects of the selected product LAC and MEF the animals were submitted to the Forced swimming test (“FST”) as described in J H Cryan et al. in J. Neubiorev. 2005, 03, 009 and the Total Immobility Time measured in the 5 group of animals.
During the test the mice were placed individually for 6 minutes in transparent plexiglass cylinders (25 cm high and 22 cm in diameter) filled with warm water (28° C.), in sufficient quantity to prevent the mouse from touching the bottom of the cylinder with hind legs. The animal was videotaped, and then the immobility time (expressed in seconds) was measured during the last 4 minutes of the test.

BDNF protein = assay: Western blot of BDNF protein in frontal cortex of CUS mice; type: in vivo; conditions: 14 days i.p. treatment, MTHF 3 mg/kg, LAC 30 mg/kg
Protocol: Mice after 4 weeks of CUS and 2 week of pharmacological treatments, as described before, at the end of Week 5 the animals were sacrificed and the level of BDNF protein were measured in Frontal Cortex by western blot.
Drug treatment started at the 3rd week of CUS and it was maintained for 2 weeks, the study ending at Week 5 for the start of the experiment. Behavioural tests were performed 3 days after the beginning of treatments, while post-mortem protein studies in the mouse brain were performed after 14 days of treatment, at the end of Week 5.
Mice were treated as described in Example 19. After 4 weeks of CUS and 2 week of pharmacological treatments (as described in Example 19), at the end of Week 5 the animals were sacrificed and the level of BDNF protein were measured in Hippocampus and Frontal Cortex by western blot. Table 28 reports the protein levels of BDNF, a neuronal trophic factor related to chronic stress and depression, in the Frontal Cortex of mice.
The antibody recognizes the mature form of the 17 KDa BDNF.

Row | Molecule | effect on immobility time in FST / effects of chronic stress (in words) [1] | Total Immobility Time (sec) + SD [1] | Western blot BDNF in frontal cortex, Optical Density bands + SD (BDNF protein)
1 | CC(=O)O[C@H](CC(=O)[O-])C[N+](C)(C)C [LAC, Acetyl L-carnitine] | not antagonised | 245.75 + 30.34 sec | 113.29 + 28.95
2 | calcium L-5-methyl-(6S)-tetrahydrofolate [MTHF] | not antagonised | 230 + 14.20 sec | 138.46 + 18.26
